Test results as given in publication PMC5218480 (PLoS ONE, 2017).

System: MV-4-11 cells
Assay: Gene expression microarray analysis (Affymetrix PrimeView) and GSEA
Assay type: cell-based, human
Parameters: RFU PODN (11730768_x_at) / Fold change /veh PODN (11730768_x_at) / RFU LINC00158 (11744669_a_at) / Fold change /veh LINC00158 (11744669_a_at) / RFU DUSP10 (11751237_a_at) / Fold change /veh DUSP10 (11751237_a_at) / RFU ID3 (11757404_x_at) / Fold change /veh ID3 (11757404_x_at) / RFU PLEKHG5 (11737974_s_at) / Fold change /veh PLEKHG5 (11737974_s_at) / RFU LRRC4B (11730491_at) / Fold change /veh LRRC4B (11730491_at) / RFU GIMAP4 (11747438_a_at) / Fold change /veh GIMAP4 (11747438_a_at) / RFU KRT8 (11758183_x_at) / Fold change /veh KRT8 (11758183_x_at) / RFU CNN1 (11734310_a_at) / Fold change /veh CNN1 (11734310_a_at) / RFU VPS37D (11726825_at) / Fold change /veh VPS37D (11726825_at) / RFU C10orf10 (11716522_x_at) / Fold change /veh C10orf10 (11716522_x_at) / RFU KIR2DL2 /// KIR2DL4 /// KIR2DL5A /// KIR2DL5B /// KIR2DS1 /// KIR2DS2 /// KIR2DS3 /// KIR2DS4 /// KIR3DL3 /// KIR3DL3 /// KIR3DS1 (11738374_at) / Fold change /veh KIR2DL2 /// KIR2DL4 /// KIR2DL5A /// KIR2DL5B /// KIR2DS1 /// KIR2DS2 /// KIR2DS3 /// KIR2DS4 /// KIR3DL3 /// KIR3DL3 /// KIR3DS1 (11738374_at) / RFU C1QL1 (11718748_at) / Fold change /veh C1QL1 (11718748_at) / RFU TMPRSS4 (11747572_a_at) / Fold change /veh TMPRSS4 (11747572_a_at) / RFU HAMP (11756126_x_at) / Fold change /veh HAMP (11756126_x_at) / RFU RNFT2 (11725882_a_at) / Fold change /veh RNFT2 (11725882_a_at) / RFU NR4A2 (11747474_a_at) / Fold change /veh NR4A2 (11747474_a_at) / RFU ABCC12 (11746883_a_at) / Fold change /veh ABCC12 (11746883_a_at) / RFU TMEM136 (11760407_x_at) / Fold change /veh TMEM136 (11760407_x_at) / RFU CLDN22 /// WWC2 (11732394_at) / Fold change /veh CLDN22 /// WWC2 (11732394_at) / RFU HLA-DPB1 (11760878_x_at) / Fold change /veh HLA-DPB1 (11760878_x_at) / RFU SPINT1 (11716480_a_at) / Fold change /veh SPINT1 (11716480_a_at) / RFU GAP43 (11754022_s_at) / Fold change /veh GAP43 (11754022_s_at) / RFU A4GNT (11735810_at) / Fold change /veh A4GNT (11735810_at) / RFU PRB3 (11715151_x_at) / Fold change /veh PRB3 (11715151_x_at) / RFU TUBB4B (11761932_at) / Fold change /veh TUBB4B (11761932_at) / RFU CAPN14 (11732068_a_at) / Fold change /veh CAPN14 (11732068_a_at) / RFU TMCC2 (11721928_a_at) / Fold change /veh TMCC2 (11721928_a_at) / RFU IRGQ (11745062_a_at) / Fold change /veh IRGQ (11745062_a_at) / RFU FAM174B (11720279_a_at) / Fold change /veh FAM174B (11720279_a_at) / RFU TMPRSS4 (11748680_a_at) / Fold change /veh TMPRSS4 (11748680_a_at) / RFU FAM212B (11763350_a_at) / Fold change /veh FAM212B (11763350_a_at) / RFU PLEKHG5 (11743358_a_at) / Fold change /veh PLEKHG5 (11743358_a_at) / RFU ZSCAN30 (11745921_a_at) / Fold change /veh ZSCAN30 (11745921_a_at) / RFU CMKLR1 (11741424_a_at) / Fold change /veh CMKLR1 (11741424_a_at) / RFU LOC101060620 /// MAPK8IP1 (11723275_at) / Fold change /veh LOC101060620 /// MAPK8IP1 (11723275_at) / RFU SPTSSB (11747773_x_at) / Fold change /veh SPTSSB (11747773_x_at) / RFU PRSS12 (11739890_at) / Fold change /veh PRSS12 (11739890_at) / RFU BIN1 (11741810_x_at) / Fold change /veh BIN1 (11741810_x_at) / RFU WNT11 (11732464_a_at) / Fold change /veh WNT11 (11732464_a_at) / RFU C10orf10 (11716521_a_at) / Fold change /veh C10orf10 (11716521_a_at) / RFU C5orf56 (11738089_at) / Fold change /veh C5orf56 (11738089_at) / RFU CYB561 (11721691_x_at) / Fold change /veh CYB561 (11721691_x_at) / RFU ANKRD19P (11752326_a_at) / Fold change /veh ANKRD19P (11752326_a_at) / RFU OR2T12 /// OR2T33 /// OR2T8 (11738714_s_at) / Fold change /veh OR2T12 /// OR2T33 /// OR2T8 (11738714_s_at) / RFU VCAN (11748164_a_at) / Fold change /veh VCAN (11748164_a_at) / RFU JSRP1 (11732532_at) / Fold change /veh JSRP1 (11732532_at) / RFU KRTAP10-11 (11738290_x_at) / Fold change /veh KRTAP10-11 (11738290_x_at) / RFU MYO3A (11730013_a_at) / Fold change /veh MYO3A (11730013_a_at) / RFU EBF3 (11725865_a_at) / Fold change /veh EBF3 (11725865_a_at) / RFU CAMK2N1 (11719241_x_at) / Fold change /veh CAMK2N1 (11719241_x_at) / RFU C5orf56 (11738088_a_at) / Fold change /veh C5orf56 (11738088_a_at) / RFU OLFML3 (11715873_a_at) / Fold change /veh OLFML3 (11715873_a_at) / RFU LOC100653217 /// NTM (11731650_a_at) / Fold change /veh LOC100653217 /// NTM (11731650_a_at) / RFU MAPK11 (11762145_a_at) / Fold change /veh MAPK11 (11762145_a_at) / RFU FIZ1 (11724087_x_at) / Fold change /veh FIZ1 (11724087_x_at) / RFU OASL (11726364_x_at) / Fold change /veh OASL (11726364_x_at) / RFU SOX15 (11748057_x_at) / Fold change /veh SOX15 (11748057_x_at) / RFU CD79A (11719716_a_at) / Fold change /veh CD79A (11719716_a_at) / RFU HIST1H1D (11736915_at) / Fold change /veh HIST1H1D (11736915_at) / RFU CASKIN2 (11723855_a_at) / Fold change /veh CASKIN2 (11723855_a_at) / RFU LOC730098 (11760151_x_at) / Fold change /veh LOC730098 (11760151_x_at) / RFU OR4N2 (11742367_at) / Fold change /veh OR4N2 (11742367_at) / RFU PRRT2 (11749266_a_at) / Fold change /veh PRRT2 (11749266_a_at) / RFU SNX32 (11753110_a_at) / Fold change /veh SNX32 (11753110_a_at) / RFU CDHR5 (11726645_a_at) / Fold change /veh CDHR5 (11726645_a_at) / RFU RCAN1 (11760418_a_at) / Fold change /veh RCAN1 (11760418_a_at) / RFU FAM167A (11723789_a_at) / Fold change /veh FAM167A (11723789_a_at) / RFU FAM26E (11764081_at) / Fold change /veh FAM26E (11764081_at) / RFU ISYNA1 (11749810_s_at) / Fold change /veh ISYNA1 (11749810_s_at) / RFU ACY1 (11761880_at) / Fold change /veh ACY1 (11761880_at) / RFU 11764098_at / Fold change /veh 11764098_at / RFU SAMD14 (11745864_x_at) / Fold change /veh SAMD14 (11745864_x_at) / RFU NPB (11741838_a_at) / Fold change /veh NPB (11741838_a_at) / RFU TMPRSS6 (11731388_a_at) / Fold change /veh TMPRSS6 (11731388_a_at) / RFU KRTAP10-2 (11738614_at) / Fold change /veh KRTAP10-2 (11738614_at) / RFU ARHGAP8 /// PRR5-ARHGAP8 (11727945_x_at) / Fold change /veh ARHGAP8 /// PRR5-ARHGAP8 (11727945_x_at) / RFU KRTAP5-7 /// NADSYN1 (11734609_at) / Fold change /veh KRTAP5-7 /// NADSYN1 (11734609_at) / RFU RASL12 (11751679_a_at) / Fold change /veh RASL12 (11751679_a_at) / RFU CDKN2B (11736163_a_at) / Fold change /veh CDKN2B (11736163_a_at) / RFU PRF1 (11729649_at) / Fold change /veh PRF1 (11729649_at) / RFU, ZNF638 /// ZNF638-IT1 / Fold change vs veh, ZNF638 /// ZNF638-IT1 / RFU, PANK3 / Fold change vs veh, PANK3 / RFU, SH3YL1 / Fold change vs veh, SH3YL1 / RFU, ZEB2 / Fold change vs veh, ZEB2 / RFU, NRIP1 / Fold change vs veh, NRIP1 / RFU, PTTG1IP / Fold change vs veh, PTTG1IP / RFU, CAPN2 / Fold change vs veh, CAPN2 / RFU, MED14 / Fold change vs veh, MED14 / RFU, SNORA58 / Fold change vs veh, SNORA58 / RFU, C1orf63 / Fold change vs veh, C1orf63 / RFU, LRRFIP1 / Fold change vs veh, LRRFIP1 / RFU, NDUFAF7 / Fold change vs veh, NDUFAF7 / RFU, SLC12A2 / Fold change vs veh, SLC12A2 / RFU, IBTK / Fold change vs veh, IBTK / RFU, ESF1 / Fold change vs veh, ESF1 / Fold change vs veh, TMEM50B / RFU, TAOK1 / Fold change vs veh, TAOK1 / RFU, ACBD3 / Fold change vs veh, ACBD3 / RFU, TMA16 / Fold change vs veh, TMA16 / RFU, RWDD3 / Fold change vs veh, RWDD3 / RFU, BCAT1 / Fold change vs veh, BCAT1 / RFU, EDEM3 / Fold change vs veh, EDEM3 / RFU, TMEM33 / Fold change vs veh, TMEM33 / RFU, WDR75 / Fold change vs veh, WDR75 / RFU, AHCTF1 / Fold change vs veh, AHCTF1 / RFU, TFRC / Fold change vs veh, TFRC / RFU, ZDHHC17 / Fold change vs veh, ZDHHC17 / RFU, NOM1 / Fold change vs veh, NOM1 / RFU, ARL8B / Fold change vs veh, ARL8B / RFU, ZBTB11 / Fold change vs veh, ZBTB11 / RFU, TAMM41 / Fold change vs veh, TAMM41 / RFU, KIAA1704 /// LOC100996395 / Fold change vs veh, KIAA1704 /// LOC100996395 / RFU, ING1 / Fold change vs veh, ING1 / RFU, TRMT61B / Fold change vs veh, TRMT61B / RFU, FUBP3 / Fold change vs veh, FUBP3 / RFU, TP53 / Fold change vs veh, TP53 / RFU, TNKS2 / Fold change vs veh, TNKS2 / RFU, ZFP14 / Fold change vs veh, ZFP14 / RFU, ACTR2 / Fold change vs veh, ACTR2 / RFU, PPP3R1 / Fold change vs veh, PPP3R1 / RFU, PIK3R1 / Fold change vs veh, PIK3R1 / RFU, HNRNPA1 / Fold change vs veh, HNRNPA1 / RFU, RNF170 / Fold change vs veh, RNF170 / RFU, ZNF28 / Fold change vs veh, ZNF28 / RFU, RNGTT / Fold change vs veh, RNGTT / RFU, OGT / Fold change vs veh, OGT / RFU, BRD1 / Fold change vs veh, BRD1 / RFU, MARS / Fold change vs veh, MARS / RFU, ZNF655 / Fold change vs veh, ZNF655 / RFU, FAHD1 / Fold change vs veh, FAHD1 / RFU, BDP1 / Fold change vs veh, BDP1 / RFU, LRRCC1 / Fold change vs veh, LRRCC1 / RFU, ARID1A / Fold change vs veh, ARID1A / RFU, ZNF146 / Fold change vs veh, ZNF146 / RFU, ZNF330 / Fold change vs veh, ZNF330 / RFU, GPN3 / Fold change vs veh, GPN3 / RFU, C9orf123 / Fold change vs veh, C9orf123 / RFU, N4BP2L2 / Fold change vs veh, N4BP2L2 / RFU, ARFIP1 / Fold change vs veh, ARFIP1 / RFU, FAM179B / Fold change vs veh, FAM179B / RFU, BCL10 / Fold change vs veh, BCL10 / RFU, UHRF1BP1L / Fold change vs veh, UHRF1BP1L / RFU, BET1 / Fold change vs veh, BET1 / RFU, CNOT2 / Fold change vs veh, CNOT2 / RFU, ZNF268 / Fold change vs veh, ZNF268 / Fold change vs veh, ZNF507 / RFU, DGCR2 / Fold change vs veh, DGCR2 / RFU, WDSUB1 / Fold change vs veh, WDSUB1 / Fold change vs veh, HSP90B1 /// MIR3652 / RFU, ADSS / Fold change vs veh, ADSS / RFU, GK / Fold change vs veh, GK / RFU, ZNF148 / Fold change vs veh, ZNF148 / RFU, TAF9 / Fold change vs veh, TAF9 / RFU, SLC1A5 / Fold change vs veh, SLC1A5 / RFU, SLMO2 / Fold change vs veh, SLMO2 / RFU, ABCC4 / Fold change vs veh, ABCC4 / RFU, LOC101060439 /// RAP1B / Fold change vs veh, LOC101060439 /// RAP1B / RFU, RFX7 / Fold change vs veh, RFX7 / RFU, GTPBP10 / Fold change vs veh, GTPBP10 / RFU, CNEP1R1 / Fold change vs veh, CNEP1R1 / RFU, BIVM-ERCC5 /// ERCC5 / Fold change vs veh, BIVM-ERCC5 /// ERCC5 / RFU, ILF3 / Fold change vs veh, ILF3 / RFU 11762660_at / Fold change /veh 11762660_at / RFU VCAN (11757783_s_at) / Fold change /veh VCAN (11757783_s_at) / RFU DDX43 (11728927_at) / Fold change /veh DDX43 (11728927_at) / RFU KRT8 (11758188_x_at) / Fold change /veh KRT8 (11758188_x_at) / RFU NKD1 (11759106_at) / Fold change /veh NKD1 (11759106_at) / RFU SRD5A1 (11742802_a_at) / Fold change /veh SRD5A1 (11742802_a_at) / RFU TPSAB1 /// TPSB2 (11721975_s_at) / Fold change /veh TPSAB1 /// TPSB2 (11721975_s_at) / RFU GSTM3 (11746129_a_at) / Fold change /veh GSTM3 (11746129_a_at) / RFU IL23R (11737362_x_at) / Fold change /veh IL23R (11737362_x_at) / RFU TMEM51 (11727254_a_at) / Fold change /veh TMEM51 (11727254_a_at) / RFU PIWIL2 (11732686_x_at) / Fold change /veh PIWIL2 (11732686_x_at) / RFU ORM1 (11744905_x_at) / Fold change /veh ORM1 (11744905_x_at) / RFU CCDC152 (11743942_at) / Fold change /veh CCDC152 (11743942_at) / RFU ECM1 (11717891_a_at) / Fold change /veh ECM1 (11717891_a_at) / RFU IL23R (11748794_a_at) / Fold change /veh IL23R (11748794_a_at) / RFU TNFAIP8L3 (11732012_x_at) / Fold change /veh TNFAIP8L3 (11732012_x_at) / RFU MBOAT4 (11741988_at) / Fold change /veh MBOAT4 (11741988_at) / RFU 11764193_at / Fold change /veh 11764193_at / RFU TMEM53 (11763286_at) / Fold change /veh TMEM53 (11763286_at) / RFU MAGEB2 (11727129_at) / Fold change /veh MAGEB2 (11727129_at) / RFU TMEM200A (11744735_a_at) / Fold change /veh TMEM200A (11744735_a_at) / RFU CCDC152 (11751479_a_at) / Fold change /veh CCDC152 (11751479_a_at) / RFU FAM211A (11726209_a_at) / Fold change /veh FAM211A (11726209_a_at) / RFU RGS16 (11746705_a_at) / Fold change /veh RGS16 (11746705_a_at) / RFU VCAN (11755009_s_at) / Fold change /veh VCAN (11755009_s_at) / RFU RHOB (11743442_s_at) / Fold change /veh RHOB (11743442_s_at) / RFU RGS16 (11720943_a_at) / Fold change /veh RGS16 (11720943_a_at) / RFU RGS16 (11720944_at) / Fold change /veh RGS16 (11720944_at) / RFU, VPS4B / Fold change vs veh, VPS4B / RFU, CREB1 / Fold change vs veh, CREB1 / RFU, DNAJC13 / Fold change vs veh, DNAJC13 / RFU, GNAQ / Fold change vs veh, GNAQ / RFU, CDK5R1 / Fold change vs veh, CDK5R1 / RFU, ZRANB3 / Fold change vs veh, ZRANB3 / RFU, CUL4A / Fold change vs veh, CUL4A / RFU, CCNY / Fold change vs veh, CCNY / RFU, UFL1 / Fold change vs veh, UFL1 / RFU, COG3 / Fold change vs veh, COG3 / RFU, DIAPH2 / Fold change vs veh, DIAPH2 / RFU, SKA2 / Fold change vs veh, SKA2 / RFU, AFF3 / Fold change vs veh, AFF3 / RFU, LMF1 / Fold change vs veh, LMF1 / RFU, IPO11 / Fold change vs veh, IPO11 / RFU, DFFB / Fold change vs veh, DFFB / RFU, FOXP1 / Fold change vs veh, FOXP1 / RFU, CARD8 / Fold change vs veh, CARD8 / RFU, STRN3 / Fold change vs veh, STRN3 / RFU, ADK / Fold change vs veh, ADK / RFU, RASSF2 / Fold change vs veh, RASSF2 / RFU, WIPF1 / Fold change vs veh, WIPF1 / RFU, LARP1B / Fold change vs veh, LARP1B / RFU, RASA1 / Fold change vs veh, RASA1 / RFU, RB1 / Fold change vs veh, RB1 / RFU, PPFIA1 / Fold change vs veh, PPFIA1 / RFU, MAT2A / Fold change vs veh, MAT2A / RFU, CCT5 / Fold change vs veh, CCT5 / RFU, WDR92 / Fold change vs veh, WDR92 / RFU, CUX1 / Fold change vs veh, CUX1 / RFU, TTC7A / Fold change vs veh, TTC7A / RFU, TMEM135 / Fold change vs veh, TMEM135 / RFU, DEPTOR / Fold change vs veh, DEPTOR / RFU, CPM / Fold change vs veh, CPM / RFU, DNAJB6 / Fold change vs veh, DNAJB6 / RFU, CACNA2D3 / Fold change vs veh, CACNA2D3 / RFU, DTX4 / Fold change vs veh, DTX4 / RFU, TFCP2 / Fold change vs veh, TFCP2 / RFU, GMCL1 /// GMCL1P1 / Fold change vs veh, GMCL1 /// GMCL1P1 / RFU, AEBP2 / Fold change vs veh, AEBP2 / RFU, SNHG1 /// SNORD22 /// SNORD25 /// SNORD26 /// SNORD27 /// SNORD28 /// SNORD29 /// SNORD31 / Fold change vs veh, SNHG1 /// SNORD22 /// SNORD25 /// SNORD26 /// SNORD27 /// SNORD28 /// SNORD29 /// SNORD31 / Fold change (Aza/veh), C12orf56 (ProbeSet 11735607_a_at) / Fold change (ACY-1035/veh), C12orf56 (ProbeSet 11735607_a_at) / Fold change (Aza/veh), FGFR1OP (ProbeSet 11751329_s_at) / Fold change (ACY-1035/veh), FGFR1OP (ProbeSet 11751329_s_at) / Fold change (Aza/veh), VPS36 (ProbeSet 11739960_a_at) / Fold change (ACY-1035/veh), VPS36 (ProbeSet 11739960_a_at) / RFU SYPL1 (11715823_x_at) / Fold change /veh SYPL1 (11715823_x_at) / RFU IGFBP7 (11715501_s_at) / Fold change /veh IGFBP7 (11715501_s_at) / RFU REEP3 (11722064_at) / Fold change /veh REEP3 (11722064_at) / RFU IGLL1 (11728026_x_at) / Fold change /veh IGLL1 (11728026_x_at): dose or concentration left out as unconfirmed
Details: ProbeSet 11743580_s_at; LIST B

Nc1ncn([C@@H]2O[C@H](CO)[C@@H](O)[C@H]2O)c(=O)n1 [azacitidine]
RFU, ACTR2: 932.68 RFU
